Test [1] deals with Pyrenophora teres. Nature of the test: Pyrenophora teres test (barley)/curative. The conditions noted are these: in Hordeum vulgare, 288 h, read-out: Efficacy in % found.
Description: Pyrenophora teres Test (Barley)/Curative • Solvent: 50 parts by weight of N,N-dimethylacetamide • Emulsifier: 1 part by weight of alkylaryl polyglycol ether
To test for curative activity, young plants are sprayed with a conidia suspension of Pyrenophora teres. The plants remain in an incubation cabinet at 20° C. and 100% relative atmospheric humidity for 48 hours.
The plants are placed in a greenhouse at a temperature of about 20° C. and a relative atmospheric humidity of about 80%.
Evaluation is carried out 12 days after the inoculation.
The test system of test [2] is Sphaerotheca fuliginea. As to the kind of experiment: Sphaerotheca fuliginea test (cucumber)/protective. The conditions noted are these: protective, 7 days after inoculation; for pest or weed control at 1 g/ha: application rate 1 g/ha; for pest or weed control at 2 g/ha: application rate 2 g/ha. Type of test: in vivo.
The subject of test [3] is Botrytis cinerea. As to the kind of experiment: Botrytis cinerea test (bean)/protective. The following applies: protective, 2 days after inoculation.
Description: After the spray coating has dried on, 2 small pieces of agar colonized by Botrytis cinerea are placed onto each leaf. The inoculated plants are placed in a darkened chamber at about 20° C. and 100% relative atmospheric humidity.
The size of the infected areas on the leaves is evaluated 2 days after the inoculation.
Test [4] has as its system Alternaria solani. Nature of the test: Alternaria solani test (tomato)/protective. The following applies: protective, 3 days after inoculation. In kind it is in vivo.
Test [5] has as its system Rhizoctonia solani. As to the kind of experiment: Rhizoctonia solani test (in vitro)/microtitre plates. Type of test: cell-based. The conditions noted are these: PDB, 5 days of incubation. As for the experimental part: Rhizoctonia solani Test (In Vitro)/Microtitre Plates The microtest is carried out in microtitre plates using potato dextrose broth (PDB) as liquid test medium. The active compounds are used as technical grade a.i., dissolved in acetone. For inoculation, a mycelium suspension of Rhizoctonia solani is used. After 5 days of incubation in the dark and with shaking (10 Hz) for each filled cavity of the microtitre plates, the light transmittance is determined with the aid of a spectrophotometer.

In test [6] the test system is Puccinia recondita. As to the kind of experiment: Puccinia recondita test (wheat)/curative. The following applies: application rate 62.5 g/ha, curative, evaluation 8 days after inoculation.
Description: Puccinia recondita Test (Wheat)/Curative • Solvent: 50 parts by weight of N,N-dimethylacetamide • Emulsifier: 1 part by weight of alkylaryl polyglycol ether
To test for curative activity, young plants are sprayed with a conidia suspension of Puccinia recondita. The plants remain in an incubation cabinet at 20° C. and 100% relative atmospheric humidity for 48 hours.
The plants are placed in a greenhouse at a temperature of about 20° C. and a relative atmospheric humidity of about 80% to promote the development of rust pustules.
(§1) Evaluation is carried out 8 days after the inoculation.
Test [7] relates to Plasmopara viticola. As to the kind of experiment: Plasmopara viticola test (grapevine)/protective. In kind it is in vivo. The conditions noted are these: protective, 6 days after inoculation.
Test [8] concerns Leptosphaeria nodorum. As to the kind of experiment: Leptosphaeria nodorum test (wheat)/curative. The following applies: application rate 25 g/ha, curative, evaluation 8 days after inoculation.
Description: Leptosphaeria nodorum Test (Wheat)/Curative • Solvent: 50 parts by weight of N,N-dimethylacetamide • Emulsifier: 1 part by weight of alkylaryl polyglycol ether
To test for curative activity, young plants are sprayed with a conidia suspension of Leptosphaeria nodorum.
The plants are placed in a greenhouse at a temperature of about 15° C. and a relative atmospheric humidity of about 80%.
as §1
The subject of test [9] is Pyricularia oryzae. In kind it is cell-based. The conditions noted are these: 3 ppm; in vitro, PDB, 3 days of incubation.
Test [10] relates to Phytophthora infestans. The following applies: in vivo.
Test [11] has as its system Erysiphe graminis f.sp. hordei. Nature of the test: Erysiphe test (barley)/protective. The conditions noted are these: application rate 12.5 g/ha, protective, evaluation 6 days after inoculation. Type of test: in vivo.
In test [12] the test system is Leptosphaeria nodorum. Nature of the test: Leptosphaeria nodorum test (wheat)/protective. The following applies: application rate 25 g/ha, protective, evaluation 11 days after inoculation. Type of test: in vivo.
In test [13] the test system is Erysiphe graminis f.sp. hordei. Nature of the test: Erysiphe test (barley)/curative. The following applies: application rate 25 g/ha, curative, evaluation 6 days after inoculation. Type of test: in vivo.
[14] abbreviates: Podosphaera fuliginea, 168 h, application rate 10 g/ha, read-out: Efficacy in % found.
[15] abbreviates: Podosphaera fuliginea, 168 h, read-out: Efficacy in % found.

`CCC1(C(=O)NC(C)c2ccc(Cl)cc2)C(C)C1(Cl)Cl` (stereo not drawn) [(6-7) carpropamid, carpropamid]: the pest or weed control at 125 g/ha in test [1] came to 14%. `CC(C)NC(=O)N1CC(=O)N(c2cc(Cl)cc(Cl)c2)C1=O` [(12-4) iprodione, iprodione]: the pest or weed control at 10 g/ha in [2] (setting [14]) was 0%. For the same compound, the “Efficacy in % found” value in test [3] (application rate 5 g/ha) is recorded as 13%; in test [3] (application rate 10 g/ha), 54%; in test [3] (application rate 20 g/ha) it was 47%. With `COCC(=O)N(c1c(C)cccc1C)[C@H](C)C(=O)OC` [(8-4) metalaxyl-M, metalaxyl-M], the “Efficacy in % found” value in test [4] (application rate 2 g/ha) was determined as 0%. For `C[C@H](Nc1c(-c2c(F)cc(F)cc2F)c(Cl)nc2ncnn12)C(F)(F)F` [(22-1), 5-chloro-N—[(IS)-2,2,2-trifluoro-1-methylethyl]-6-(2,4,6-trifluorophenyl)[1,2,4]triazolo-[1,5-a]pyrimidine-7-amine], the pest or weed control at 1 g/ha in [2] (setting [15]) turned out to be 22%.

With `O=C(Nc1ccccc1)N(Cc1ccc(Cl)cc1)C1CCCC1` [(20-1) pencycuron, pencycuron], the “Efficacy in % found” value in test [5] (1 ppm) is given as 54%. Take `N#Cc1c[nH]cc1-c1cccc2c1OC(F)(F)O2` [(16-2) fludioxonil, fludioxonil]: the “Efficacy in % found” value in test [6] worked out at 0%. Same read-out and setting: the result for `CC(C)CC(C)c1sccc1NC(=O)c1cn(C)nc1C(F)(F)F` (stereo not drawn) [(6-14) penthiopyrad, penthiopyrad] reads 44%; that for `CCCN(CCOc1c(Cl)cc(Cl)cc1Cl)C(=O)n1ccnc1` [(14-2) prochloraz, prochloraz], 0%. For the compound `CCO[PH](=O)O` [(17-1) fosetyl-A1, fosetyl-A1], the “Efficacy in % found” value in [7] (application rate 500 g/ha) is reported as 33%; in test [7] (application rate 1000 g/ha) it was 58%. Regarding `CC(C)(C)C(O)(CCc1ccc(Cl)cc1)Cn1cncn1` (stereo not drawn) [(3-17) tebuconazole, tebuconazole], in [1], the pest or weed control at 25 g/ha stood at 29%. Further, the pest or weed control at 2 g/ha in [2] (setting [15]) is 10%. The “Efficacy in % found” value in [8] is on record as 29%. `Cc1ccc(N(SC(F)(Cl)Cl)S(=O)(=O)N(C)C)cc1` [(4-2) tolylfluanid, tolylfluanid]: in [2] (setting [14]), the pest or weed control at 10 g/ha worked out at 0%.

As for `CC(C)(C)C(O)C(Oc1ccc(-c2ccccc2)cc1)n1cncn1` (stereo not drawn) [(3-21) bitertanol, bitertanol], the pest or weed control at 2 g/ha in test [2] (setting [15]) came to 20%. As to `O=C(Nc1ccccc1-c1ccc(Cl)cc1)c1cccnc1Cl` [(6-2) boscalid, boscalid], in [2] (setting [15]), the pest or weed control at 1 g/ha was 10%. As for `CCCOC(=O)NCCCN(C)C` [(11-2) propamocarb, propamocarb], in test [5] (1 ppm), the “Efficacy in % found” value was 7%. With `CCCC1COC(Cn2cncn2)(c2ccc(Cl)cc2Cl)O1` (stereo not drawn) [(3-3) propiconazole, propiconazole], in test [2] (setting [15]), the pest or weed control at 1 g/ha was found to be 37%. As for `CNC(=O)/C(=N/OC)c1ccccc1Oc1ncnc(Oc2cccc(Cl)c2C)c1F` [(2-3), (2E)-2-(2-{[6-(3-chloro-2-methylphenoxy)-5-fluoro-4-pyrimidinyl]oxy}phenyl)-2-(methoxyimino)-N-methylethanamide], the “Efficacy in % found” value in test [4] (application rate 1 g/ha) is listed as 39%; in [4] (application rate 2 g/ha), 32%. With `CCCN(CC)CC1COC2(CCC(C(C)(C)C)CC2)O1` (stereo not drawn) [(19-10) spiroxamine, spiroxamine], the pest or weed control at 10 g/ha in [2] (setting [14]) is 0%. The “Efficacy in % found” value in [6] was 0%.

Turning to `[O-][n+]1nc(-n2ccnc2)nc2ccc(Cl)cc21` [(14-3) triazoxide, triazoxide], in test [9], the “Efficacy in % found” value was 3%.

With `CC1(C(=O)Nc2ccc(O)c(Cl)c2Cl)CCCCC1` [(6-6) fenhexamid, fenhexamid], the pest or weed control at 10 g/ha in test [2] (setting [14]) was 0%.

Consider `N#Cc1ccccc1NC(=O)c1snc(Cl)c1Cl` [3,4-dichloro-N-(2-cyanophenyl)isothiazole-5-carboxamide], for which the pest or weed control at 125 g/ha in [1] was 43%. Turning to `CC(C)[C@@H](C)Nc1c(-c2c(F)cc(F)cc2F)c(Cl)nc2ncnn12` [(22-2), 5-chloro-N—[(IR)-1,2-dimethylpropyl]-6-(2,4,6-trifluorophenyl)[1,2,4]triazolo[1,5-a]-pyrimidine-7-amine], in [2] (setting [15]), the pest or weed control at 1 g/ha was found to be 22%. On to `Fc1ccc(C2(Cn3cncn3)OC2c2ccccc2Cl)cc1` (stereo not drawn) [(3-12) epoxyconazole, epoxiconazole], for which, in test [1], the pest or weed control at 125 g/ha was found to be 57%. In the case of `N#Cc1c(Cl)c(Cl)c(Cl)c(C#N)c1Cl` [(19-2) chlorothalonil, chlorothalonil], the pest or weed control at 10 g/ha in [2] (setting [14]) came out at 0%. For the compound mancozeb [(7-1) mancozeb], the “Efficacy in % found” value in test [2] (application rate 10 g/ha) stood at 0%. `CO/N=C(/C1=NOCCO1)c1ccccc1Oc1ncnc(Oc2ccccc2Cl)c1F` [(2-2) fluoxastrobin, fluoxastrobin]: the pest or weed control at 25 g/ha in test [1] turned out to be 0%. Moreover, in [2] (setting [15]), the pest or weed control at 2 g/ha amounted to 37%. In addition, in test [8], the “Efficacy in % found” value is on record as 29%. With `Cn1cc(C(=O)Nc2ccc(F)cc2-c2ccc(Cl)c(Cl)c2)c(C(F)F)n1` [(24-1), N-(3′,4′-dichloro-5-fluoro-1,1′-biphenyl-2-yl)-3-(difluoromethyl)-1-methyl-1H-pyrazole-4-carboxamide], the “Efficacy in % found” value in test [5] (0.003 ppm) came out at 50%; in [10], 0%. With `COC(=O)[C@@H](C)N(C(=O)Cc1ccccc1)c1c(C)cccc1C` [(8-5) benalaxyl-M, benalaxyl-M], in test [4] (application rate 2 g/ha), the “Efficacy in % found” value was found to be 0%. For `CO/N=C(/C(=O)OC)c1ccccc1CO/N=C(\C)c1cccc(C(F)(F)F)c1` [(2-4) trifloxystrobin, trifloxystrobin], the “Efficacy in % found” value in [11] worked out at 78%. In addition, the pest or weed control at 1 g/ha in test [2] (setting [15]) worked out at 20%. For the compound `CC(C)CC(C)c1ccccc1NC(=O)c1ccccc1I` (stereo not drawn) [(1-13), N-[2-(1,3-dimethylbutyl)phenyl]-2-iodobenzamide], the “Efficacy in % found” value in [11] is listed as 0%; in test [4] (application rate 2 g/ha), 0%; in test [12], 13%; in [8], 0%. Besides, the pest or weed control at 1 g/ha in test [2] (setting [15]) stood at 10%. Turning to `CC(C)OC(=O)N[C@H](C(=O)N[C@H](C)c1nc2ccc(F)cc2s1)C(C)C` [(5-3) benthiavalicarb, benthiavalicarb], the “Efficacy in % found” value in test [10] was found to be 50%.

In the case of `CC(C)CC(C)c1ccccc1NC(=O)c1ccccc1C(F)(F)F` (stereo not drawn) [(1-15), N-[2-(1,3-dimethylbutyl)phenyl]-2-(trifluoromethyl)benzamide], the “Efficacy in % found” value in test [11] is on record as 0%. For the same compound, the pest or weed control at 25 g/ha in test [1] came out at 14%. As to `COC(=O)N(OC)c1ccccc1COc1ccn(-c2ccc(Cl)cc2)n1` [(2-12) pyraclostrobin, pyraclostrobin], in [4] (application rate 2 g/ha), the “Efficacy in % found” value came to 37%. Consider `Cc1cc(C)nc(Nc2ccccc2)n1` [(9-3) pyrimethanil, pyrimethanil], for which, in test [2] (setting [14]), the pest or weed control at 10 g/ha was 0%.

As to `CO/C=C(/C(=O)OC)c1ccccc1COc1cccc(C(F)(F)F)n1` [(2-11) picoxystrobin, picoxystrobin], in test [1], the pest or weed control at 125 g/ha was determined as 86%.

For the compound `CO/N=C(/C(=O)OC)c1ccccc1COc1ccccc1C` [(2-9) kresoxim-methyl, kresoxim-methyl], in [6], the “Efficacy in % found” value turned out to be 0%. Take propineb [(7-4) propineb]: in test [2] (application rate 5 g/ha), the “Efficacy in % found” value worked out at 0%. In the case of `OC(Cc1ccccc1Cl)(Cn1nc[nH]c1=S)C1(Cl)CC1` (stereo not drawn) [(3-15) prothioconazole, prothioconazole], the “Efficacy in % found” value in test [11] is listed as 67%; in test [12], 13%; in test [13], 22%. Besides, in test [2] (setting [15]), the pest or weed control at 1 g/ha came out at 43%. For the compound `CO/C=C(/C(=O)OC)c1ccccc1Oc1cc(Oc2ccccc2C#N)ncn1` [(2-1) azoxystrobin, azoxystrobin], the pest or weed control at 4 g/ha in test [2] (Podosphaera fuliginea, 168 h, application rate 4 g/ha, read-out: Efficacy in % found) is 50%. On to `Cc1ccc(C(C)NC(=O)[C@H](NC(=O)OC(C)C)C(C)C)cc1` (stereo partly drawn) [(5-1) iprovalicarb, iprovalicarb], for which the “Efficacy in % found” value in test [10] came to 64%.

For `Cc1nn(C)c(F)c1C(=O)Nc1ccccc1C(C)CC(C)(C)C` (stereo not drawn) [(1-8), 5-fluoro-1,3-dimethyl-N-[2-(1,3,3-trimethylbutyl)phenyl]-1H-pyrazole-4-carboxamide], the “Efficacy in % found” value in test [11] is 11%; in test [13] it was 0%. For the same compound, in test [1], the pest or weed control at 25 g/ha worked out at 14%. With `CSC1=N[C@@](C)(c2ccccc2)C(=O)N1Nc1ccccc1` [(19-13) fenamidone, fenamidone], the “Efficacy in % found” value in test [10] is given as 47%.

The values above are taken from patent publication US9717247B2, “Synergistic fungicidal active combinations” (BAYER CROPSCIENCE AG, priority 2003, dated 2017).
